PubChem BioAssay (NCI)
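Exposure lasted 48 hours, with cells grown in 96-well plates and compounds tested at five concentrations. The concentration for full growth arrest is given as TGI.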

What was measured:
Assay in all cases: NCI tumour cell line growth inhibition, 48 h
[1] = test system: NCI-H460 lung
[2] = test system: OVCAR-3 ovarian
[3] = test system: MDA-MB-435
[4] = test system: HCT-116 colon
[5] = test system: UACC-257 melanoma
[6] = test system: EKVX NSCLC
[7] = test system: HT29 colon
[8] = test system: NCI-H522 lung
[9] = test system: SK-MEL-5 melanoma
[10] = test system: MCF7 breast
[11] = test system: SF-295 CNS
[12] = test system: NCI/ADR-RES ovarian
[13] = test system: HOP-92 NSCLC
[14] = test system: DU-145 prostate
[15] = test system: SR leukemia
[16] = test system: NCI-H23 lung
[17] = test system: MDA-MB-231 breast
[18] = test system: OVCAR-8 ovarian
[19] = test system: T-47D breast
[20] = test system: HS 578T breast
[21] = test system: PC-3 prostate
[22] = test system: 786-0 renal
[23] = test system: OVCAR-5 ovarian
[24] = test system: MDA-N
[25] = test system: HOP-62 NSCLC
[26] = test system: SNB-75 CNS
[27] = test system: HL-60(TB) leukemia
[28] = test system: TK-10 renal
[29] = test system: NCI-H226 lung
[30] = test system: SK-MEL-2 melanoma
[31] = test system: SF-268 CNS
[32] = test system: K-562 leukemia
[33] = test system: U251 CNS
[34] = test system: OVCAR-4 ovarian
[35] = test system: SW-620 colon
[36] = test system: SN12C renal
[37] = test system: RPMI-8226 leukemia
[38] = test system: COLO 205 colon
[39] = test system: ACHN renal
[40] = test system: LOX IMVI melanoma
[41] = test system: IGROV1 ovarian
[42] = test system: KM12 colon
[43] = test system: UO-31 renal
[44] = test system: SK-OV-3 ovarian
[45] = test system: M14 melanoma
[46] = test system: CAKI-1 renal
[47] = test system: SK-MEL-28 melanoma
[48] = test system: MOLT-4 leukemia
[49] = test system: CCRF-CEM leukemia
[50] = test system: HCT-15 colon
[51] = test system: SF-539 CNS
[52] = test system: HCC-2998 colon
[53] = test system: A549 NSCLC
[54] = test system: RXF 393 renal
[55] = test system: SNB-19 CNS
[56] = test system: UACC-62 melanoma

For Cc1ccc(S(=O)(=O)NC2C(=O)c3ccccc3C(=O)C2n2ccnc2)cc1 (stereo unspecified), the TGI [1] was greater than 100 µM, the TGI [2] was greater than 100 µM and the TGI [3] was 33 µM. For the same compound, the TGI [4] was 53.1 µM, the TGI [5] was greater than 100 µM and the TGI [6] was greater than 100 µM. It also gave a TGI [7] greater than 100 µM, a TGI [8] of 5.77 µM and a TGI [9] greater than 100 µM. The TGI [10] was greater than 100 µM, the TGI [11] was greater than 100 µM and the TGI [12] was greater than 100 µM. The TGI [13] was greater than 100 µM, the TGI [14] was 30.7 µM and the TGI [15] was greater than 100 µM. It also gave a TGI [16] greater than 100 µM, a TGI [17] of 29.5 µM and a TGI [18] greater than 100 µM. It also gave a TGI [19] of 38.8 µM, a TGI [20] greater than 100 µM and a TGI [21] greater than 100 µM. For the same compound, the TGI [22] was 32.8 µM, the TGI [23] was greater than 100 µM and the TGI [24] was 29 µM. The TGI [25] was greater than 100 µM, the TGI [26] was greater than 100 µM and the TGI [27] was 46.4 µM. The TGI [28] was greater than 100 µM, the TGI [29] was greater than 100 µM and the TGI [30] was greater than 100 µM. The TGI [31] was greater than 100 µM, the TGI [32] was greater than 100 µM and the TGI [33] was greater than 100 µM. The TGI [34] was greater than 100 µM, the TGI [35] was greater than 100 µM and the TGI [36] was 28.3 µM. For the same compound, the TGI [37] was greater than 100 µM, the TGI [38] was greater than 100 µM and the TGI [39] was greater than 100 µM. The TGI [40] was 25 µM, the TGI [41] was greater than 100 µM and the TGI [42] was greater than 100 µM. For the same compound, the TGI [43] was greater than 100 µM, the TGI [44] was greater than 100 µM and the TGI [45] was greater than 100 µM. The TGI [46] was greater than 100 µM, the TGI [47] was greater than 100 µM and the TGI [48] was 80.8 µM. For the same compound, the TGI [49] was 52.9 µM, the TGI [50] was greater than 100 µM and the TGI [51] was greater than 100 µM. It also gave a TGI [52] greater than 100 µM, a TGI [53] greater than 100 µM and a TGI [54] greater than 100 µM. For the same compound, the TGI [55] was greater than 100 µM and the TGI [56] was greater than 100 µM.
